These are literature values, as cited in US20130143970A1, “MEDICINAL PREPARATION PARTICULARLY FOR THE TREATMENT OF SLIPPED DISCS HERNIAS” (priority 2002, published 2013).

For this data set the following is noted: intradiscal injections.

As to `CCO` [absolute alcohol, ethanol], the “treatment results in lumbar discal hernias” value was “very promising results”.
